Structures are written as SMILES.

The subject of one assay is HBV. Description: HBV replication inhibition assay (BDNA assay) in HepG2.2.15 cells. It counts as cell-based. To be noted: HBV replication assay (BDNA assay), HepG2.2.15 cells; read-out: DNA EC50. The procedure, abridged: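 HepG2.2.15 cells with stably integrated HBV were treated with serially diluted compounds at 0.5% DMSO for 6 days, with medium and compound refreshed at day 3. Encapsidated HBV DNA from DNase-treated supernatant was quantified by branched DNA assay. EC50 came from % inhibition versus DMSO, fitted non-linearly.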
The term EC50 denotes the concentration giving half of the maximal effect. As to `C[C@@H]1Cc2nn3c(c2CN1C(=O)Nc1cc(Cl)c(F)cc1F)C(=O)N(C)OC(COCC(F)F)C3` (stereo partly drawn) [Compound 127_D1, (45*,9R)—N-(5-chloro-2,4-difluorophenyl)-4-((2,2-difluoroethoxy)methyl)-2,9-dimethyl-1-oxo-1,4,5,8,9,11-hexahydropyrido[4′,3′:3,4]pyrazolo[5,1-d][1,2,5]oxadiazepine-10(2H)-carboxamide], the EC50 was in the range of 100 to 500 nM.

Staying with this assay, now noted: Hepatitis B virus, HepG2.2.15, HBV replication assay (BDNA assay), HepG2.2.15 cells; read-out: DNA EC50.
With `CN1OC(COC(F)(F)F)Cn2nc3c(c2C1=O)CN(C(=O)Nc1ccc(F)c(Cl)c1)CC3` (stereo not drawn) [Compound 128, N-(3-chloro-4-fluorophenyl)-2-methyl-1-oxo-4-((trifluoromethoxy)methyl)-1,4,5,8,9,11-hexahydropyrido[4′,3′:3,4]pyrazolo[5,1-d][1,2,5]oxadiazepine-10(2H)-carboxamide], the EC50 lay in the range of 1 to 100 nM.

As for `CN1OC(CNS(=O)(=O)CC(F)(F)F)Cn2nc3c(c2C1=O)CN(C(=O)Nc1ccc(F)c(Cl)c1)CC3` (stereo not drawn) [Compound 130, N-(3-chloro-4-fluorophenyl)-2-methyl-1-oxo-4-(((2,2,2-trifluoroethyl)sulfonamido)methyl)-1,4,5,8,9,11-hexahydropyrido[4′,3′:3,4]pyrazolo[5,1-d][1,2,5]oxadiazepine-10(2H)-carboxamide], the EC50 fell in the range of 1 to 100 nM.

Consider `CN1OC(C(=O)N2CC(F)(F)C2)Cn2nc3c(c2C1=O)CN(C(=O)Nc1ccc(F)c(Cl)c1)CC3` (stereo not drawn) [Compound 131, N-(3-chloro-4-fluorophenyl)-4-(3,3-difluoroazetidine-1-carbonyl)-2-methyl-1-oxo-1,4,5,8,9,11-hexahydropyrido[4′,3′:3,4]pyrazolo[5,1-d][1,2,5]oxadiazepine-10(2H)-carboxamide], for which the EC50 was 1 to 100 nM.

On to `CN1OC(C(=O)N2CCC(F)(F)C2)Cn2nc3c(c2C1=O)CN(C(=O)Nc1ccc(F)c(Cl)c1)CC3` (stereo not drawn) [Compound 132, N-(3-chloro-4-fluorophenyl)-4-(3,3-difluoropyrrolidine-1-carbonyl)-2-methyl-1-oxo-1,4,5,8,9,11-hexahydropyrido[4′,3′:3,4]pyrazolo[5,1-d][1,2,5]oxadiazepine-10(2H)-carboxamide], for which the EC50 was 1 to 100 nM.

Take `CN(CC(F)(F)F)C(=O)C1Cn2nc3c(c2C(=O)N(C)O1)CN(C(=O)Nc1ccc(F)c(Cl)c1)CC3` (stereo not drawn) [Compound 133, N10-(3-chloro-4-fluorophenyl)-N4,2-dimethyl-1-oxo-N4-(2,2,2-trifluoroethyl)-1,4,5,8,9,11-hexahydropyrido[4′,3′:3,4]pyrazolo[5,1-d][1,2,5]oxadiazepine-4,10(2H)-dicarboxamide]: the EC50 was 1 to 100 nM.

For `CN(CC(F)F)C(=O)C1Cn2nc3c(c2C(=O)N(C)O1)CN(C(=O)Nc1ccc(F)c(Cl)c1)CC3` (stereo not drawn) [Compound 134, N10-(3-chloro-4-fluorophenyl)-N4-(2,2-difluoroethyl)-N4,2-dimethyl-1-oxo-1,4,5,8,9,11-hexahydropyrido[4′,3′:3,4]pyrazolo[5,1-d][1,2,5]oxadiazepine-4,10(2H)-dicarboxamide], the EC50 was 1 to 100 nM.

For `CN1OC(C(=O)NCC(F)(F)F)Cn2nc3c(c2C1=O)CN(C(=O)Nc1ccc(F)c(Cl)c1)CC3` (stereo not drawn) [Compound 135, N10-(3-chloro-4-fluorophenyl)-2-methyl-1-oxo-N4-(2,2,2-trifluoroethyl)-1,4,5,8,9,11-hexahydropyrido[4′,3′:3,4]pyrazolo[5,1-d][1,2,5]oxadiazepine-4,10(2H)-dicarboxamide], the EC50 lay in the range of 1 to 100 nM.

Consider `CN1OC(C(=O)NCC(F)F)Cn2nc3c(c2C1=O)CN(C(=O)Nc1ccc(F)c(Cl)c1)CC3` (stereo not drawn) [Compound 136, N10-(3-chloro-4-fluorophenyl)-N4-(2,2-difluoroethyl)-2-methyl-1-oxo-1,4,5,8,9,11-hexahydropyrido[4′,3′:3,4]pyrazolo[5,1-d][1,2,5]oxadiazepine-4,10(2H)-dicarboxamide], for which the EC50 was 1 to 100 nM.

As to `CN(CC(F)F)C(=O)C1Cn2nc3c(c2C(=O)N(C)O1)CN(C(=O)Nc1ccc(F)c(Cl)c1F)CC3` (stereo not drawn) [Compound 158, N10-(3-chloro-2,4-difluorophenyl)-N4-(2,2-difluoroethyl)-N4,2-dimethyl-1-oxo-1,4,5,8,9,11-hexahydropyrido[4′,3′:3,4]pyrazolo[5,1-d][1,2,5]oxadiazepine-4,10(2H)-dicarboxamide], the EC50 was in the range of 1 to 100 nM.

For `CN(CC(F)F)C(=O)C1Cn2nc3c(c2C(=O)N(C)O1)CN(C(=O)Nc1cc(Cl)c(F)cc1F)CC3` (stereo not drawn) [Compound 159, N10-(5-chloro-2,4-difluorophenyl)-N4-(2,2-difluoroethyl)-N4,2-dimethyl-1-oxo-1,4,5,8,9,11-hexahydropyrido[4′,3′:3,4]pyrazolo[5,1-d][1,2,5]oxadiazepine-4,10(2H)-dicarboxamide], the EC50 is 1 to 100 nM.

Turning to `CN(CC(F)F)C(=O)C1Cn2nc3c(c2C(=O)N(C)O1)CN(C(=O)Nc1ccc(F)c(C#N)c1)CC3` (stereo not drawn) [Compound 160, N10-(3-cyano-4-fluorophenyl)-N4-(2,2-difluoroethyl)-N4,2-dimethyl-1-oxo-1,4,5,8,9,11-hexahydropyrido[4′,3′:3,4]pyrazolo[5,1-d][1,2,5]oxadiazepine-4,10(2H)-dicarboxamide], the EC50 lay within 1 to 100 nM.

For the compound `CN(CC(F)F)C(=O)C1Cn2nc3c(c2C(=O)N(C)O1)CN(C(=O)Nc1ccc(F)c(C#N)c1F)CC3` (stereo not drawn) [Compound 161, N10-(3-cyano-2,4-difluorophenyl)-N4-(2,2-difluoroethyl)-N4,2-dimethyl-1-oxo-1,4,5,8,9,11-hexahydropyrido[4′,3′:3,4]pyrazolo[5,1-d][1,2,5]oxadiazepine-4,10(2H)-dicarboxamide], the EC50 is 1 to 100 nM.

For the compound `CC(=O)NCC1Cn2nc3c(c2C(=O)N(C)O1)CN(C(=O)Nc1ccc(F)c(Cl)c1)CC3` (stereo not drawn) [Compound 162, -(acetamidomethyl)-N-(3-chloro-4-fluoro-phenyl)-2-methyl-1-oxo-5,8,9,11-tetrahydro-4H-pyrido[2,3]pyrazolo[2,4-d][1,2,5]oxadiazepine-10-carboxamide], the EC50 was in the range of 1 to 100 nM.

`CN1OC(CNS(=O)(=O)C(F)(F)F)Cn2nc3c(c2C1=O)CN(C(=O)Nc1ccc(F)c(Cl)c1)CC3` (stereo not drawn) [Compound 164, N-(3-chloro-4-fluorophenyl)-2-methyl-1-oxo-4-(((trifluoromethyl)sulfonamido)methyl)-1,4,5,8,9,11-hexahydropyrido[4′,3′:3,4]pyrazolo[5,1-d][1,2,5]oxadiazepine-10(2H)-carboxamide]: the EC50 was in the range of 100 to 500 nM.

As for `CN1OC(CNS(C)(=O)=O)Cn2nc3c(c2C1=O)CN(C(=O)Nc1ccc(F)c(Cl)c1)CC3` (stereo not drawn) [Compound 165, N-(3-chloro-4-fluorophenyl)-2-methyl-4-(methylsulfonamidomethyl)-1-oxo-1,4,5,8,9,11-hexahydropyrido[4′,3′:3,4]pyrazolo[5,1-d][1,2,5]oxadiazepine-10(2H)-carboxamide], the EC50 is 1 to 100 nM.

`COC(=O)NCC1Cn2nc3c(c2C(=O)N(C)O1)CN(C(=O)Nc1ccc(F)c(Cl)c1)CC3` (stereo not drawn) [Compound 166, methyl((10-((3-chloro-4-fluorophenyl)carbamoyl)-2-methyl-1-oxo-1,2,4,5,8,9,10,11-octahydropyrido[4′,3′:3,4]pyrazolo[5,1-d][1,2,5]oxadiazepin-4-yl)methyl)carbamate]: the EC50 lay in the range of 1 to 100 nM.

Regarding `CNC(=O)C1Cn2nc3c(c2C(=O)N(C)O1)CN(C(=O)Nc1ccc(F)c(C#N)c1F)CC3` (stereo not drawn) [Compound 195, N10-(3-cyano-2,4-difluorophenyl)-N4,2-dimethyl-1-oxo-1,4,5,8,9,11-hexahydropyrido[4′,3′:3,4]pyrazolo[5,1-d][1,2,5]oxadiazepine-4,10(2H)-dicarboxamide], the EC50 was 1 to 100 nM.

For `CCC(=O)NCC1Cn2nc3c(c2C(=O)N(C)O1)CN(C(=O)Nc1ccc(F)c(Cl)c1)CC3` (stereo not drawn) [Compound 197, N-(3-chloro-4-fluorophenyl)-2-methyl-1-oxo-4-(propionamidomethyl)-1,4,5,8,9,11-hexahydropyrido[4′,3′:3,4]pyrazolo[5,1-d][1,2,5]oxadiazepine-10(2H)-carboxamide], the EC50 is 1 to 100 nM.

As to `CN1OC(CNC(=O)C2CC2)Cn2nc3c(c2C1=O)CN(C(=O)Nc1ccc(F)c(Cl)c1)CC3` (stereo not drawn) [Compound 198, N-(3-chloro-4-fluorophenyl)-4-(cyclopropanecarboxamidomethyl)-2-methyl-1-oxo-1,4,5,8,9,11-hexahydropyrido[4′,3′:3,4]pyrazolo[5,1-d][1,2,5]oxadiazepine-10(2H)-carboxamide], the EC50 lay within 1 to 100 nM.

In the case of `CN1OC(CNC(=O)CC(F)(F)F)Cn2nc3c(c2C1=O)CN(C(=O)Nc1ccc(F)c(Cl)c1)CC3` (stereo not drawn) [Compound 199, N-(3-chloro-4-fluorophenyl)-2-methyl-1-oxo-4-((3,3,3-trifluoropropanamido)methyl)-1,4,5,8,9,11-hexahydropyrido[4′,3′:3,4]pyrazolo[5,1-d][1,2,5]oxadiazepine-10(2H)-carboxamide], the EC50 lay within 1 to 100 nM.

Take `CC(C)C(=O)NCC1Cn2nc3c(c2C(=O)N(C)O1)CN(C(=O)Nc1ccc(F)c(Cl)c1)CC3` (stereo not drawn) [Compound 200, N-(3-chloro-4-fluorophenyl)-4-(isobutyramidomethyl)-2-methyl-1-oxo-1,4,5,8,9,11-hexahydropyrido[4′,3′:3,4]pyrazolo[5,1-d][1,2,5]oxadiazepine-10(2H)-carboxamide]: the EC50 lay within 1 to 100 nM.

For `CN1OC(CNC(=O)C(C)(C)C)Cn2nc3c(c2C1=O)CN(C(=O)Nc1ccc(F)c(Cl)c1)CC3` (stereo not drawn) [Compound 201, N-(3-chloro-4-fluorophenyl)-2-methyl-1-oxo-4-(pivalamidomethyl)-1,4,5,8,9,11-hexahydropyrido[4′,3′:3,4]pyrazolo[5,1-d][1,2,5]oxadiazepine-10(2H)-carboxamide], the 50% effective concentration (EC50) fell in the range of 1 to 100 nM.

Still in this assay, the particulars now being: Hepatitis B virus, HepG2.2.15, read-out: DNA EC50.
Turning to `CN1OC(CNC(=O)C(F)(F)F)Cn2nc3c(c2C1=O)CN(C(=O)Nc1ccc(F)c(Cl)c1)CC3` (stereo not drawn) [Compound 163, N-(3-chloro-4-fluorophenyl)-2-methyl-1-oxo-4-((2,2,2-trifluoroacetamido)methyl)-1,4,5,8,9,11-hexahydropyrido[4′,3′:3,4]pyrazolo[5,1-d][1,2,5]oxadiazepine-10(2H)-carboxamide], the EC50 was 1 to 100 nM.

The values above are taken from US10987359B2, “Oxadiazepinone derivatives and methods of treating hepatitis B infections” (priority 2016, dated 2021).
